Data as given in patent US20230365632A1, “A GROUP OF PEPTIDE DERIVATIVE OMICSYNINS WITH ANTIVIRAL ACTIVITY AND USES THEREOF” (INSTITUTE OF MEDICINAL BIOTECHNOLOGY CHINESE ACADEMY OF …, priority 2020, published 2023).
≈ marks a conversion by molar mass, not a printed value. Where “and” joins values, the source holds several entries; their conditions need not be identical. Equal values may be shown once. Read-outs that look alike come from different tables or passages of the source. *1 amine or outer side, *2 acyl side, *3 side chain or, on linkers, in order; H or OH if unused. Where a SMILES comes first, the peptide text is derived from it. [ ]: non-standard residue; d: D form. Phe(ol) = N[CH](CO)Cc1ccccc1; CO = O=C([*:1])[*:2]

Key:
[1] = test system: influenza virus A/wuhan/359/95 (H3N2); assay: organism not typed; type: cell-based
[2] = test system: coronavirus HCoV-229E; assay: CPE inhibition assay against HCoV-229E in Huh7.5 cells; type: cell-based
[3] = in vitro; settings: dog
[4] = in vitro; settings: human
[5] = test system: coronavirus HCoV-OC43; assay: qRT-PCR of HCoV-OC43 N protein mRNA in C3A cells; type: cell-based; settings: 24 hours, corrected for GAPDH, read-out: IC50 for inhibitory activity of coronavirus HCoV-OC43
[6] = test system: Madin-Darby canine kidney cells (MDCK)
[7] = test system: Huh7.5 cells; assay: 50% toxicity concentration (TC50) by CPE assay in Huh7.5 cells; settings: read-out: TC50, Table 10
[8] = test system: influenza virus A/Fort Monmouth/1/47 (H1N1); assay: organism not typed; type: cell-based; settings: MDCK, read-out: A/Fort Monmouth/1/47(H1N1) IC50
[9] = MDCK, read-out: A/Wuhan/359/1995 (H3N2) IC50
[10] = Human coronavirus 229E, Huh7.5, read-out: HCoV-229E IC50

## CC(C)C(NC(=O)C(CCCNC(=N)N)NC(=O)NC(Cc1ccccc1)C(=O)O)C(=O)NC(CO)Cc1ccccc1 (stereo not drawn) [Omicsynin A3, Chymostatinol A] ({Phe-CO}-Arg-Val-[Phe(ol)]; configuration not given here)
[1]; [9]
  IC50: 87.9 ± 23.7 µM
[2]; [10]
  IC50: 57.4 ± 15.6 µM
[3]
  CC50: > 336 µM
[4]
  CC50: > 168 µM

## CC(C)[C@H](NC(=O)[C@H](CCCNC(=N)N)NC(=O)N[C@@H](Cc1ccccc1)C(=O)O)C(=O)N[C@H](C=O)CCCNC(=N)N [Omicsynin B4, Antipain] ({Phe-CO}-Arg-Val-Arg-aldehyde)
[1]; Table 9; CPE method; mean ± SD, three repeats; read-out: A/Wuhan/359/1995 (H3N2) IC50
  IC50: 2.43 ± 0.71 µM
[2]; Table 10, Huh7.5 cells, 100 TCID50, read-out: HCoV-229E IC50
  IC50: 0.89 ± 0.22 µM
[5]
  IC50: 28.7 µM
[6]; read-out: TC50, Table 9, CPE method
  CC50: > 331 µM
[7]
  CC50: > 165 µM

## CCOC(=O)C1=C[C@@H](OC(CC)CC)[C@H](NC(C)=O)[C@@H](N)C1 [Oseltamivir Phosphate]
[1]; MDCK, Table 5; HP20 eluates and positive drugs; read-out: A/Wuhan/359/1995 (H3N2) IC50
  IC50: 2.01 µg/mL
[6]; Table 5, HP20 eluates and positive drugs
  TC50: 577.35 µg/mL

## CCOC(=O)C1=C[C@@H](OC(CC)CC)[C@H](NC(C)=O)[C@@H](N)C1 [Oseltamivir]
[1]; MDCK, Table 1; positive drug; read-out: A/wuhan/359/95(H3N2) IC50
  IC50: 1.63 µg/mL
[1]; MDCK, Table 3; positive drug; read-out: A/Wuhan/359/1995 (H3N2) IC50
  IC50: 2.01 µg/mL
[1]; MDCK, Table 4; positive drug; read-out: A/Wuhan/359/1995 (H3N2) IC50
  IC50: 1.77 µg/mL
[1]; MDCK; Table 2; positive drugs; read-out: A/wuhan/359/95(H3N2) IC50
  IC50: 1.63 µg/mL
[1]; MDCK; read-out: A/Wuhan/359/1995 (H3N2) IC50
  IC50: 2.47 µg/mL
[8]; Table 2, positive drugs
  IC50: 2.01 µg/mL (≈ 6.43 µM)
[6]; Table 1, positive drug
  TC50: 1260 µg/mL (≈ 4030 µM)
[6]; Table 2, positive drugs
  TC50: 1260 µg/mL (≈ 4030 µM)
[6]; Table 3, positive drug
  TC50: 577.4 µg/mL (≈ 1850 µM)
[6]; Table 4, positive drug
  TC50: >1000 µg/mL
[6]; Table 6, 50E-C18 components and positive drugs
  TC50: 577.35 µg/mL (≈ 1850 µM)

## NC(=O)c1ncn([C@@H]2O[C@H](CO)[C@@H](O)[C@H]2O)n1 [RBV, ribavirin]
[1]; [9]
  IC50: 2.47 µg/mL and 13.2 µM
[1]; MDCK, read-out: A/wuhan/359/95(H3N2) IC50
  IC50: 1.63 µg/mL
[8]
  IC50: 0.82 µg/mL (≈ 3.36 µM)
[2]; [10]
  IC50: 25.1 ± 6.1 µM
[3]
  CC50: > 819 µM
[4]
  CC50: > 410 µM

## CC(C)[C@H](NC(=O)[C@H](CCCNC(=N)N)NC(=O)N[C@@H](Cc1ccccc1)C(=O)O)C(=O)N[C@H](C=O)CCCNC(=N)N [antipain, Antipain] ({Phe-CO}-Arg-Val-Arg-aldehyde)
[1]; MDCK, Table 9; CPE method; mean ± SD, three repeats; read-out: A/Wuhan/359/1995 (H3N2) IC50
  IC50: 3.16 ± 0.94 µM
[2]; [10]
  IC50: 1.57 ± 0.46 µM
[3]
  CC50: > 331 µM
[4]
  CC50: > 165 µM

## CC(C)C[C@H](NC(=O)[C@@H](NC(=O)N[C@@H](Cc1ccccc1)C(=O)O)[C@@H]1CCN=C(N)N1)C(=O)N[C@H](C=O)Cc1ccccc1 [chymostatin, Chymostatin]
[1]; [9]
  IC50: 329 µM
[2]; [10]
  IC50: 23.7 ± 5.66 µM
[3]
  CC50: > 329 µM
[4]
  CC50: > 165 µM
